# From ChEMBL document CHEMBL5154930, “Design, Synthesis, and Biological Evaluations of DOT1L Peptide Mimetics Targeting the Protein-Protein Interactions between DOT1L and MLL-AF9/MLL-ENL” (J Med Chem, 2022)
# The source made the active and inactive calls. The rule behind the calls is not given here.
# Key:
# MOLM-13 [1] = test: Down regulation of TUBA1B gene in human MOLM-13 cells by RNA-sequencing analysis; assay type: functional, cell-based
# MOLM-13 [2] = test: Down regulation of DCUN1D1 gene in human MOLM-13 cells by RNA-sequencing analysis; assay type: functional, cell-based
# MOLM-13 [3] = test: Down regulation of HOXA11 gene in human MOLM-13 cells by RNA-sequencing analysis; assay type: functional, cell-based
# MOLM-13 [4] = test: Down regulation of HOXA5 gene in human MOLM-13 cells by RNA-sequencing analysis; assay type: functional, cell-based
# MOLM-13 [5] = test: Down regulation of AC011043.1 gene in human MOLM-13 cells by RNA-sequencing analysis; assay type: functional, cell-based
# MOLM-13 [6] = test: Down regulation of JMJD1C gene in human MOLM-13 cells by RNA-sequencing analysis; assay type: functional, cell-based
# MOLM-13 [7] = test: Down regulation of HOXA3 gene in human MOLM-13 cells by RNA-sequencing analysis; assay type: functional, cell-based
# MOLM-13 [8] = test: Inhibition of HOXA9 gene expression in human MOLM-13 cells at 0.25 uM by RT-qPCR analysis; assay type: functional, cell-based; settings: time 2-6 day, TDE = time-dependent effect
# MOLM-13 [9] = test: Inhibition of MEIS1 gene expression in human MOLM-13 cells measured at 0.125 to 0.5 uM after 6 days by RT-qPCR analysis; assay type: functional, cell-based; settings: dose 0.125-0.5 µM, time 6.0 day
# MOLM-13 [10] = test: Inhibition of methylation of H3K79 in human MOLM-13 cells assessed as inhibition of methylation at HOXA7 gene cluster by chromatin immunoprecipitation assay; assay type: functional, cell-based
# MOLM-13 [11] = test: Down regulation of CNOT6L gene in human MOLM-13 cells by RNA-sequencing analysis; assay type: functional, cell-based
# MOLM-13 [12] = test: Inhibition of methylation of H3K79 in human MOLM-13 cells assessed as inhibition of methylation at HOXA4 gene cluster by chromatin immunoprecipitation assay; assay type: functional, cell-based
# MOLM-13 [13] = test: Down regulation of MCM2 gene in human MOLM-13 cells by RNA-sequencing analysis; assay type: functional, cell-based
# MOLM-13 [14] = test: Down regulation of GATA2 gene in human MOLM-13 cells by RNA-sequencing analysis; assay type: functional, cell-based
# MOLM-13 [15] = test: Down regulation of PBX3 gene in human MOLM-13 cells by RNA-sequencing analysis; assay type: functional, cell-based
# MOLM-13 [16] = test: cells; settings: Homo sapiens, MOLM-13, 192 h
# Description: Anticancer activity against human MOLM-13 cells harbouring MLL-AF9 assessed as inhibition of cell growth treated for 8 days measured by CCK-8 kit method
# MOLM-13 [17] = test: Inhibition of HOXA9 gene expression in human MOLM-13 cells measured at 0.125 to 0.5 uM after 6 days by RT-qPCR analysis; assay type: functional, cell-based; settings: dose 0.125-0.5 µM, time 6.0 day
# MOLM-13 [18] = test: Down regulation of MEF2C gene in human MOLM-13 cells by RNA-sequencing analysis; assay type: functional, cell-based
# RS4-11 = test: Anticancer activity against human RS4-11 cells assessed as inhibition of cell growth treated for 8 days measured by CCK-8 kit method; assay type: functional, cell-based; settings: RS4-11, 192 h
# MOLM-13 [19] = test: Inhibition of methylation of H3K79 in human MOLM-13 cells assessed as inhibition of methylation at HOXA5 gene cluster by chromatin immunoprecipitation assay; assay type: functional, cell-based
# MOLM-13 [20] = test: Down regulation of RUNX1 gene in human MOLM-13 cells by RNA-sequencing analysis; assay type: functional, cell-based
# MOLM-13 [21] = test: Inhibition of methylation of H3K79 in human MOLM-13 cells assessed as inhibition of methylation at MEIS1-AS3 gene cluster by chromatin immunoprecipitation assay; assay type: functional, cell-based
# MOLM-13 [22] = test: Down regulation of SSBP2 gene in human MOLM-13 cells by RNA-sequencing analysis; assay type: functional, cell-based
# MOLM-13 [23] = test: cells; settings: Homo sapiens, MOLM-13, 96 h
# Description: Anticancer activity against human MOLM-13 cells harbouring MLL-AF9 assessed as inhibition of cell growth treated for 4 days measured by CCK-8 kit method
# MOLM-13 [24] = test: Inhibition of methylation of H3K79 in human MOLM-13 cells assessed as inhibition of methylation at HOXA9 gene cluster by chromatin immunoprecipitation assay; assay type: functional, cell-based
# MOLM-13 [25] = test: Down regulation of ARID2 gene in human MOLM-13 cells by RNA-sequencing analysis; assay type: functional, cell-based
# MOLM-13 [26] = test: Inhibition of methylation of H3K79 in human MOLM-13 cells assessed as inhibition of methylation at HOXA6 gene cluster by chromatin immunoprecipitation assay; assay type: functional, cell-based
# MOLM-13 [27] = test: Down regulation of ARID1B gene in human MOLM-13 cells by RNA-sequencing analysis; assay type: functional, cell-based
# MOLM-13 [28] = test: Down regulation of GBE1 gene in human MOLM-13 cells by RNA-sequencing analysis; assay type: functional, cell-based
# MOLM-13 [29] = test: Inhibition of methylation of H3K79 in human MOLM-13 cells assessed as inhibition of methylation at HOXA10 gene cluster by chromatin immunoprecipitation assay; assay type: functional, cell-based
# MV4-11 = test: Anticancer activity against human MV4-11 cells assessed as inhibition of cell growth treated for 8 days measured by CCK-8 kit method; assay type: functional, cell-based; settings: MV4-11, 192 h
# MOLM-13 [30] = test: Down regulation of HOXA10 gene in human MOLM-13 cells by RNA-sequencing analysis; assay type: functional, cell-based
# MOLM-13 [31] = test: Down regulation of SKP2 gene in human MOLM-13 cells by RNA-sequencing analysis; assay type: functional, cell-based
# MOLM-13 [32] = test: Down regulation of HPGD gene in human MOLM-13 cells by RNA-sequencing analysis; assay type: functional, cell-based
# MOLM-13 [33] = test: Inhibition of methylation of H3K79 in human MOLM-13 cells assessed as inhibition of methylation at MEIS1 gene cluster by chromatin immunoprecipitation assay; assay type: functional, cell-based
# K562 = test: Anticancer activity against human K562 cells assessed as inhibition of cell growth treated for 8 days measured by CCK-8 kit method; assay type: functional, cell-based; settings: K562, 192 h
# MOLM-13 [34] = test: Induction of apoptosis in human MOLM-13 cells at 0.125 to 0.5 uM treated for 7 days by Annexin V-FITC/PI staining based flow cytometry analysis; assay type: functional, cell-based; settings: dose 0.125-0.5 µM, time 7.0 day
# MOLM-13 [35] = test: Inhibition of methylation of H3K79 in human MOLM-13 cells assessed as inhibition of methylation at […] gene cluster by chromatin immunoprecipitation assay; assay type: functional, cell-based
# MOLM-13 [36] = test: cells; settings: Homo sapiens, MOLM-13, 120 h
# Description: Anticancer activity against human MOLM-13 cells harbouring MLL-AF9 assessed as inhibition of cell growth treated for 5 days measured by CCK-8 kit method
# MOLM-13 [37] = test: Inhibition of methylation of H3K79 in human MOLM-13 cells assessed as inhibition of methylation at HOXA13 gene cluster by chromatin immunoprecipitation assay; assay type: functional, cell-based
# MOLM-13 [38] = test: cells; settings: Homo sapiens, MOLM-13, 216 h
# Description: Anticancer activity against human MOLM-13 cells harbouring MLL-AF9 assessed as inhibition of cell growth treated for 9 days measured by CCK-8 kit method
# MOLM-13 [39] = test: Down regulation of […] gene in human MOLM-13 cells by RNA-sequencing analysis; assay type: functional, cell-based
# MOLM-13 [40] = test: cells; settings: Homo sapiens, MOLM-13, 144 h
# Description: Anticancer activity against human MOLM-13 cells harbouring MLL-AF9 assessed as inhibition of cell growth treated for 6 days measured by CCK-8 kit method
# MOLM-13 [41] = test: Down regulation of HOXA9 gene in human MOLM-13 cells by RNA-sequencing analysis; assay type: functional, cell-based
# MOLM-13 [42] = test: Inhibition of methylation of H3K79 in human MOLM-13 cells assessed as inhibition of methylation at HOXA2 gene cluster by chromatin immunoprecipitation assay; assay type: functional, cell-based
# MOLM-13 [43] = test: Inhibition of methylation of H3K79 in human MOLM-13 cells assessed as inhibition of methylation at HOXA1 gene cluster by chromatin immunoprecipitation assay; assay type: functional, cell-based
# MOLM-13 [44] = test: Inhibition of methylation of H3K79 in human MOLM-13 cells assessed as inhibition of methylation at HOXA3 gene cluster by chromatin immunoprecipitation assay; assay type: functional, cell-based
# MOLM-13 [45] = test: Down regulation of MEIS1 gene in human MOLM-13 cells by RNA-sequencing analysis; assay type: functional, cell-based
# MOLM-13 [46] = test: cells; settings: Homo sapiens, MOLM-13, 168 h
# Description: Anticancer activity against human MOLM-13 cells harbouring MLL-AF9 assessed as inhibition of cell growth treated for 7 days measured by CCK-8 kit method
# MOLM-13 [47] = test: Inhibition of methylation of H3K79 in human MOLM-13 cells assessed as inhibition of methylation at HOXA11 gene cluster by chromatin immunoprecipitation assay; assay type: functional, cell-based
# MOLM-13 [48] = test: Inhibition of MEIS1 expression in human MOLM-13 cells at 0.25 uM by RT-qPCR analysis; assay type: functional, cell-based; settings: time 2-6 day, TDE = time-dependent effect
# KOPN-8 = test: cells; settings: Homo sapiens, KOPN-8, 192 h
# Description: Anticancer activity against human KOPN-8 cells harbouring MLL-ENL assessed as inhibition of cell growth treated for 8 days measured by CCK-8 kit method
# MOLM-13 [49] = test: Disruption of AF9-mediated DOT1L recruitment in human […] cells assessed as decrease in global H3K79 methylation level at 0.125 uM measured after 8 days by Western blotting analysis; assay type: cell-based; settings: time 8.0 day
# MOLM-13 [50] = test: Inhibition of methylation of H3K79 in human MOLM-13 cells assessed as inhibition of methylation at HOXA-AS2 gene cluster by chromatin immunoprecipitation assay; assay type: functional, cell-based
# MOLM-13 [51] = test: Down regulation of CDKN1B gene in human MOLM-13 cells by RNA-sequencing analysis; assay type: functional, cell-based
# MOLM-13 [52] = test: Down regulation of CDK6 gene in human MOLM-13 cells by RNA-sequencing analysis; assay type: functional, cell-based
# MOLM-13 [53] = test: Down regulation of CDK1 gene in human MOLM-13 cells by RNA-sequencing analysis; assay type: functional, cell-based
smiles,measurement,setting,value
CC(C)N(C[C@H]1O[C@@H](n2cnc3c(N)ncnc32)[C@H](O)[C@@H]1O)[C@H]1C[C@@H](CCc2nc3cc(C(C)(C)C)ccc3[nH]2)C1 [PINOMETOSTAT],Activity,MOLM-13 [1],Active
same,Activity,MOLM-13 [2],Active
same,Activity,MOLM-13 [3],Active
same,Activity,MOLM-13 [4],Active
same,Activity,MOLM-13 [5],Active
same,Activity,MOLM-13 [6],Active
same,Activity,MOLM-13 [7],Active
same,inhibition,MOLM-13 [8],Tde
same,inhibition,MOLM-13 [9],Active
same,inhibition,MOLM-13 [10],Active
same,Activity,MOLM-13 [11],Active
same,inhibition,MOLM-13 [12],Active
same,Activity,MOLM-13 [13],Active
same,Activity,MOLM-13 [14],Active
same,Activity,MOLM-13 [15],Active
same,IC50,MOLM-13 [16],30 nM
same,inhibition,MOLM-13 [17],Active
same,Activity,MOLM-13 [18],Active
same,IC50,RS4-11,70 nM
same,inhibition,MOLM-13 [19],Active
same,Activity,MOLM-13 [20],Active
same,inhibition,MOLM-13 [21],Active
same,Activity,MOLM-13 [22],Active
same,IC50,MOLM-13 [23],227 nM
same,inhibition,MOLM-13 [24],Active
same,Activity,MOLM-13 [25],Active
same,inhibition,MOLM-13 [26],Active
same,Activity,MOLM-13 [27],Active
same,Activity,MOLM-13 [28],Active
same,inhibition,MOLM-13 [29],Active
same,IC50,MV4-11,50 nM
same,Activity,MOLM-13 [30],Active
same,Activity,MOLM-13 [31],Active
same,Activity,MOLM-13 [32],Active
same,inhibition,MOLM-13 [33],Active
same,IC50,K562,31000 nM
same,Activity,MOLM-13 [34],Active
same,inhibition,MOLM-13 [35],Active
same,IC50,MOLM-13 [36],97 nM
same,inhibition,MOLM-13 [37],Active
same,IC50,MOLM-13 [38],21 nM
same,Activity,MOLM-13 [39],Active
same,IC50,MOLM-13 [40],73 nM
same,Activity,MOLM-13 [41],Active
same,inhibition,MOLM-13 [42],Active
same,inhibition,MOLM-13 [43],Active
same,inhibition,MOLM-13 [44],Active
same,Activity,MOLM-13 [45],Active
same,IC50,MOLM-13 [46],59 nM
same,inhibition,MOLM-13 [47],Active
same,inhibition,MOLM-13 [48],Tde
same,IC50,KOPN-8,60 nM
same,inhibition,MOLM-13 [49],100%
same,inhibition,MOLM-13 [50],Active
same,Activity,MOLM-13 [51],Active
same,Activity,MOLM-13 [52],Active
same,Activity,MOLM-13 [53],Active
